Laboratory results reported in patent US4452786A, “Condurango glycoside compounds, processes for their preparation, antitumor agents comprising them and compositions” (Zenyaku Kogyo Kabushiki Kaisha, priority 1980, dated 1984).

Experiments:
[1] = test system: Ehrlich carcinoma; assay: Screening test against Ehrlich carcinoma, subcutaneous solid type, in mice (T/C of tumor weight on thirtieth day); type: in vivo, ddy male mice; conditions: intraperitoneally, once per day for ten days, average tumor weight on thirtieth day
Experimental: The activity of the compounds of the present invention against Ehrlich carcinoma was confirmed by the screening test mentioned below.
Ehrlich carcinoma was employed for the determination of the antitumor properties, and the tumor to be tested was of subcutaneous solid type.
The animal group to which the compounds of the present invention were administered consisted of seven mice, whereas the control group consisted of ten mice.
Six weeks old ddy male mice (body weight: 28-30 g) were employed except for the case where condurango glycoside Ao or Co was administered; in the latter case those weighing 20-26 g and being five weeks old were used.
The tumors were transplanted intraperitoneally in the mice. On the seventh day after the transplantation, the well grown cells of the tumors were taken out, and 1.5×10^6 cells (3.0×10^6 cells in the case where condurango glycoside Ao or Co was given) thereof was transplanted subcutaneously in the inguinal region of the mice to form solid tumors. At and after 24 hours after the transplantation, the compounds of the present invention dissolved in physiological saline solutions were administered to the mice intraperitoneally.
The volume of the respective solutions administered was 0.2 ml per mouse at one time, and the administration was continued for ten days at a rate of one time per day. Only physiological saline solutions were given to the mice of the control group.
On the thirtieth day after the transplantation, the tumors were taken out and measured to get the average weight of the tumors of the mice of the group to which the compounds of the present invention had been administered (T) and that of the control group (C) and to calculate the T/C (%).

[2] = Acute toxicity, intraperitoneal administration to mice, five days observation; type: in vivo; conditions: mouse, in vivo, ip, intraperitoneally, five weeks old ddy male mice
Excerpt: (§1) Next, the acute toxicity of the compounds of the present invention is as follows.

[3] = test system: ddy male mice; assay: as above; type: in vivo; conditions: intraperitoneally, five weeks old ddy male mice, 7200 min
Excerpt: as §1

Row | SMILES | T/C (%) ([1]; 8 mg/kg × 10 times) | T/C (%) ([1]; 16 mg/kg × 10 times) | LD50 at 120 h [2] [mg/kg] | T/C (%) ([1]; 32 mg/kg × 10 times) | LD50 [3] [mg/kg]
1 | COC1CC(OC2CCC3(C)C(CCC4C3C(OC(=O)C=Cc3ccccc3)C(OC(C)=O)C3(C)C(C(C)=O)CCC43O)C2)OC(C)C1OC1CC(OC)C(OC2OC(C)C(OC3OC(CO)C(O)C(O)C3O)C(OC)C2O)C(C)O1 (stereo not drawn) [Condurango glycoside Ao, condurango glycoside Ao] | 32.1 | 27.3 | 75 |  | 
2 | COC1CC(OC2CCC3(C)C(CCC4C3C(OC(=O)C=Cc3ccccc3)C(OC(C)=O)C35COC(C)(O)C3CCC45O)C2)OC(C)C1OC1CC(OC)C(OC2OC(C)C(OC3OC(CO)C(O)C(O)C3O)C(OC)C2O)C(C)O1 (stereo not drawn) [Condurango glycoside Do, condurango glycoside Do] | 29.0 | 53.8 | 630 | 9.5 | 
3 | COC1CC(OC2CCC3(C)C(CCC4C3C(OC(=O)C=Cc3ccccc3)C(OC(C)=O)C35COC6(C)OC43CCC65)C2)OC(C)C1OC1CC(OC)C(OC2OC(C)C(OC3OC(CO)C(O)C(O)C3O)C(OC)C2O)C(C)O1 (stereo not drawn) [Condurango glycoside Bo, condurango glycoside Bo] | 23.3 | 11.8 | 615 | 10.0 | 
4 | COC1CC(OC2CCC3(C)C(CCC4C3C(OC(=O)C=Cc3ccccc3)C(OC(C)=O)C35COC(C)(OC)C3CCC45O)C2)OC(C)C1OC1CC(OC)C(OC2OC(C)C(OC3OC(CO)C(O)C(O)C3O)C(OC)C2O)C(C)O1 (stereo not drawn) [20-Iso-O-methyl-condurango glycoside Do, 20-iso-O-methyl-condurango glycoside Do] | 38.1 | 26.3 |  | 18.0 | 642
5 | COC1CC(OC2CCC3(C)C(CCC4C3C(OC(=O)C=Cc3ccccc3)C(OC(C)=O)C3(C)C(C(C)O)CCC43O)C2)OC(C)C1OC1CC(OC)C(OC2OC(C)C(OC3OC(CO)C(O)C(O)C3O)C(OC)C2O)C(C)O1 (stereo not drawn) [Condurango glycoside Co, condurango glycoside Co] |  | 30.8 | 375 | 20.1 | 
6 | COC1CC(OC2CCC3(C)C(CCC4C3C(OC(=O)C=Cc3ccccc3)C(OC(C)=O)C35COC(C)(OC)C3CCC45O)C2)OC(C)C1OC1CC(OC)C(OC2OC(C)C(OC3OC(CO)C(O)C(O)C3O)C(OC)C2O)C(C)O1 (stereo not drawn) [20-O-methyl-condurango glycoside Do] | 16.5 | 11.6 | 603 |  | 
